≈ marks a conversion by molar mass, not a printed value. Calls of active or inactive are those of the source. No cut-off for these calls is given here.
Tests used:
Klebsiella aerogenes = assay: Antimicrobial activity against Enterobacter aerogenes by broth dilution method; type: functional
Citrobacter freundii = assay: Antimicrobial activity against Citrobacter freundii by broth dilution method; type: functional
Providencia stuartii = assay: Antimicrobial activity against Providencia stuartii by broth dilution method; type: functional
Proteus vulgaris = assay: Antimicrobial activity against Proteus vulgaris by broth dilution method; type: functional
Providencia rettgeri = assay: Antimicrobial activity against Providencia rettgeri by broth dilution method; type: functional
Escherichia coli = assay: Antimicrobial activity against Escherichia coli by broth dilution method; type: functional
Klebsiella oxytoca = assay: Antimicrobial activity against Klebsiella oxytoca by broth dilution method; type: functional
Klebsiella pneumoniae [1] = assay: Antimicrobial activity against Klebsiella pneumoniae by broth dilution method; type: functional
Proteus penneri = assay: Antimicrobial activity against Proteus penneri by broth dilution method; type: functional
Proteus mirabilis = assay: Antimicrobial activity against Proteus mirabilis by broth dilution method; type: functional
Serratia marcescens = assay: Antimicrobial activity against Serratia marcescens by broth dilution method; type: functional
Acinetobacter sp. = assay: Antimicrobial activity against Acinetobacter sp. by broth dilution method; type: functional
Burkholderia sp. = assay: Antimicrobial activity against Burkholderia sp. by broth dilution method; type: functional
[2] = tested on: Stenotrophomonas maltophilia; assay: Antimicrobial activity against Stenotrophomonas maltophilia by broth dilution method; type: functional
Enterobacteriaceae = assay: Antimicrobial activity against Enterobacteriaceae by broth dilution method; type: functional
Pseudomonas aeruginosa [3] = assay: Antimicrobial activity against Pseudomonas aeruginosa by broth dilution method; type: functional
Acinetobacter baumannii = assay: Antimicrobial activity against Acinetobacter baumannii HPA74510 assessed as number of passages required for MIC to rise above 4 times original MIC; type: functional
Acinetobacter junii = assay: Antimicrobial activity against Acinetobacter junii 15218 assessed as number of passages required for MIC to rise above 4 times original MIC; type: functional
Klebsiella pneumoniae [4] = assay: Antimicrobial activity against Klebsiella pneumoniae 1338665 assessed as number of passages required for MIC to rise above 4 times original MIC; type: functional
Pseudomonas aeruginosa [5] = assay: Antimicrobial activity against Pseudomonas aeruginosa BA assessed as number of passages required for MIC to rise above 4 times original MIC; type: functional
Pseudomonas aeruginosa [6] = assay: Antimicrobial activity against Pseudomonas aeruginosa 527 assessed as number of passages required for MIC to rise above 4 times original MIC; type: functional
[7] = tested on: Stenotrophomonas maltophilia; assay: Antimicrobial activity against Stenotrophomonas maltophilia 1AC736 assessed as number of passages required for MIC to rise above 4 times original MIC; type: functional
Pseudomonas aeruginosa [8] = assay: Antimicrobial activity against Pseudomonas aeruginosa B4 by broth dilution method; type: functional
Pseudomonas aeruginosa [9] = assay: Antimicrobial activity against oprD protein deficient Pseudomonas aeruginosa C2 by broth dilution method; type: functional
Pseudomonas aeruginosa [10] = assay: Antimicrobial activity against mexAB-oprM protein and mexCD-oprJ deficient Pseudomonas aeruginosa PAO238 by broth dilution method; type: functional
Pseudomonas aeruginosa [11] = assay: Antimicrobial activity against mexAB-oprM protein and mexCD-oprJ deficient Pseudomonas aeruginosa PAO253 overexpressing MexEF-OprN gene by broth dilution method; type: functional
Pseudomonas aeruginosa [12] = assay: Antimicrobial activity against mexAB-oprM protein and mexZ deficient Pseudomonas aeruginosa PAO267 by broth dilution method; type: functional
Pseudomonas aeruginosa [13] = assay: Antimicrobial activity against mexAB-oprM, mexCD-oprJ, mexEF-oprN, mexJK, mexXY, opmH and pscC gene deficient Pseudomonas aeruginosa PAO750 by broth dilution method; type: functional
Pseudomonas aeruginosa [14] = assay: Antimicrobial activity against Pseudomonas aeruginosa BA(C2-107) selected after 25 ug/ml of compound exposure by broth dilution method; type: functional
Pseudomonas aeruginosa [15] = assay: Antimicrobial activity against Pseudomonas aeruginosa BA(C1-106) selected after 25 ug/ml of compound exposure by broth dilution method; type: functional
Pseudomonas aeruginosa [16] = assay: Antimicrobial activity against Pseudomonas aeruginosa BA by broth dilution method; type: functional
Pseudomonas aeruginosa [17] = details: PAO1
Description: Antimicrobial activity against Pseudomonas aeruginosa PAO1 by broth dilution method

Molecule: CO/N=C(\C(=O)N[C@@H]1C(=O)N2C(C(=O)[O-])=C(C[N+]3(C)CCCC3)CS[C@H]12)c1csc(N)n1
- MIC90 (Klebsiella aerogenes): 16 µg/mL (≈ 33.3 µM)
- MIC50 (Citrobacter freundii): 1 µg/mL (≈ 2.08 µM)
- MIC90 (Citrobacter freundii): 4 µg/mL (≈ 8.32 µM)
- MIC50 (Providencia stuartii): ≤ 0.06 µg/mL
- MIC90 (Providencia stuartii): > 32 µg/mL
- MIC50 (Proteus vulgaris): 0.125 µg/mL (≈ 0.26 µM)
- MIC90 (Proteus vulgaris): 1 µg/mL (≈ 2.08 µM)
- MIC50 (Providencia rettgeri): ≤ 0.06 µg/mL
- MIC90 (Providencia rettgeri): > 32 µg/mL
- MIC50 (Escherichia coli): 8 µg/mL (≈ 16.6 µM)
- MIC90 (Escherichia coli): > 32 µg/mL
- MIC50 (Klebsiella oxytoca): 2 µg/mL (≈ 4.16 µM)
- MIC90 (Klebsiella oxytoca): 4 µg/mL (≈ 8.32 µM)
- MIC50 (Klebsiella pneumoniae [1]): 4 µg/mL (≈ 8.32 µM)
- MIC90 (Klebsiella pneumoniae [1]): > 32 µg/mL
- MIC50 (Proteus penneri): 0.125 µg/mL (≈ 0.26 µM)
- MIC90 (Proteus penneri): 1 µg/mL (≈ 2.08 µM)
- MIC50 (Proteus mirabilis): 0.125 µg/mL (≈ 0.26 µM)
- MIC90 (Proteus mirabilis): 1 µg/mL (≈ 2.08 µM)
- MIC50 (Serratia marcescens): 1 µg/mL (≈ 2.08 µM)
- MIC90 (Serratia marcescens): 2 µg/mL (≈ 4.16 µM)
- MIC50 (Acinetobacter sp.): 32 µg/mL (≈ 66.6 µM)
- MIC90 (Acinetobacter sp.): > 32 µg/mL
- MIC50 (Burkholderia sp.): 8 µg/mL (≈ 16.6 µM)
- MIC90 (Burkholderia sp.): 16 µg/mL (≈ 33.3 µM)
- MIC50 [2]: 16 µg/mL (≈ 33.3 µM)
- MIC90 [2]: > 32 µg/mL
- MIC50 (Enterobacteriaceae): 4 µg/mL (≈ 8.32 µM)
- MIC50 (Pseudomonas aeruginosa [3]): 16 µg/mL (≈ 33.3 µM)
- MIC90 (Pseudomonas aeruginosa [3]): 32 µg/mL (≈ 66.6 µM)
- Activity (Acinetobacter baumannii): inactive
- Activity (Acinetobacter junii): 14 passages
- Activity (Klebsiella pneumoniae [4]): inactive
- Activity (Pseudomonas aeruginosa [5]): 2 passages
- Activity (Pseudomonas aeruginosa [6]): 1 passages
- Activity [7]: 1 passages

Molecule: POLYMYXIN B
- MIC50 (Acinetobacter sp.): 4 µg/mL
- MIC90 (Acinetobacter sp.): 32 µg/mL
- MIC50 (Pseudomonas aeruginosa [3]): 4 µg/mL
- MIC90 (Pseudomonas aeruginosa [3]): 8 µg/mL
- MIC (Pseudomonas aeruginosa [8]): 2 µg/mL
- MIC (Pseudomonas aeruginosa [9]): 4 µg/mL
- MIC (Pseudomonas aeruginosa [10]): 8 µg/mL
- MIC (Pseudomonas aeruginosa [11]): 4 µg/mL
- MIC (Pseudomonas aeruginosa [12]): 8 µg/mL
- MIC (Pseudomonas aeruginosa [13]): 8 µg/mL
- MIC (Pseudomonas aeruginosa [14]): 4 µg/mL
- MIC (Pseudomonas aeruginosa [15]): 2 µg/mL
- MIC (Pseudomonas aeruginosa [16]): 4 µg/mL
- MIC (Pseudomonas aeruginosa [17]): 8 µg/mL
